Measured values taken from patent US9095598B2, “Stilbenoid derivatives and their uses” (The Board of Trustees of the University of Arkansas, priority 2010, dated 2015).
Like-named read-outs stand apart in the source and are kept apart here.

Experiments:
[1] = molecular target: T1, CB1 receptors (Mus musculus, UniProt P47746); type: biochemical
T1 construct: from tissue; host or cells: mouse brain membranes

[2] = system: CB1 receptors; type: biochemical, mouse; conditions: 10 μM, 30 min at 30° C.
[3] = molecular target: T2, human CB2 (Homo sapiens, UniProt P34972); test: CB2 receptor binding, CHO-hCB2 membranes, 3H-CP 55,940 displacement; conditions: 0.2 nM 3H-CP 55,940, 90 min room temperature
T2 construct: expressed in transfected cells; host or cells: CHO cells, stably transformed; membrane preparations
Experimental: (§1) Membrane preparations were prepared from mouse brain to examine CB1 binding. For CB2 binding, membrane preparations were prepared from CHO cells stably transformed with human CB2.

[4] = molecular target: T3, human recombinant UGT1A10 (Homo sapiens, UniProt Q9HAW8); test: Glucuronidation by recombinant human UGT1A10 (activity screen and kinetic constants); conditions: for glucuronide formation, in words (FIG. 1): substrate 250 μM, UDP-GlcUA 4 mM
T3 sequence (Q9HAW8 26-530): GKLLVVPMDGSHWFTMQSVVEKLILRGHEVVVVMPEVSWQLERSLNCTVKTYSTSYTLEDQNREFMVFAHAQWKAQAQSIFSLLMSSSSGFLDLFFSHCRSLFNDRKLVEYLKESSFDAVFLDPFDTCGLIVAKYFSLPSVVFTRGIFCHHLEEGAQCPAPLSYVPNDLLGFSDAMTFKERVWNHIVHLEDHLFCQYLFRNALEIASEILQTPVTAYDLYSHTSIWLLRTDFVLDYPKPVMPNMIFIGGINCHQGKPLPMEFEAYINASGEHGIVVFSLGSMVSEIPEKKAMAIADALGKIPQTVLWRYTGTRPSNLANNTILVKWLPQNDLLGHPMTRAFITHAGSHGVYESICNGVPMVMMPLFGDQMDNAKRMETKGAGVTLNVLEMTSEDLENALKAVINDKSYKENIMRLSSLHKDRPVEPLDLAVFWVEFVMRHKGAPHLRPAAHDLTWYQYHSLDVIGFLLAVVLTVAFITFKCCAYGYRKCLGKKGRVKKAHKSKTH
Experimental: (§2) Eight human recombinant UGT1A isoforms (UGT1A1, 1A3, 1A4, 1A6, 1A7, 1A8, 1A9, and 1A10; 5 μg) expressed as His-tag proteins in baculovirus-infected Sf9 insect cells and human liver microsomes (from one donor; HL2; 50 μg) and human intestinal microsomes (from two donors; HI36 and HI41; 50 μg) were evaluated for their ability to glucuronidate these four compounds. The concentrations of the substrate and co-substrate (i.e., UDP-GlcUA) were 250 μM and 4 mM, respectively. Glucuronidation products were analyzed by HPLC and LCMS/MS.
(§3) The kinetic constants of the glucuronidation reactions using recombinant human UGT1A1 and UGT1A10 were determined by measuring the enzyme activity in the presence of increasing concentrations of substrate (see FIG. 2).

[5] = molecular target: T4, human recombinant UGT1A1 (Homo sapiens, UniProt P22309); test: Glucuronidation by recombinant human UGT1A1 (activity screen and kinetic constants); conditions: for Kinetics (model): — = No activity; for glucuronide formation, in words (FIG. 1): substrate 250 μM, UDP-GlcUA 4 mM
T4 sequence (P22309 26-533): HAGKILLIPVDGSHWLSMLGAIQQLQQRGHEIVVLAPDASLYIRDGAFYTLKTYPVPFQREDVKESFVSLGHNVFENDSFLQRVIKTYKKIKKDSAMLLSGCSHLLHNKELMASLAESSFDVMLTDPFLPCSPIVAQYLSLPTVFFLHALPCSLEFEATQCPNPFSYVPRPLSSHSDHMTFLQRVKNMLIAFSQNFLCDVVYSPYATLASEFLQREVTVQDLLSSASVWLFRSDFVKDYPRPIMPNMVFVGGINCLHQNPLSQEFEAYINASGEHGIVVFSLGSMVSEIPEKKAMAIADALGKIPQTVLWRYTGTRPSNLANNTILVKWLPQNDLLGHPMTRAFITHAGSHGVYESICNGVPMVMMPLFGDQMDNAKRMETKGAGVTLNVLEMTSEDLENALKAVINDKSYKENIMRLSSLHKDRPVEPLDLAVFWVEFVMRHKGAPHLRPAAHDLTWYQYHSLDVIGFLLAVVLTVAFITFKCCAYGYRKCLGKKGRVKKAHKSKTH
Experimental: as §2, §3

[6] = system: sepsis-induced renal injury (CLP); test: Murine cecal ligation and puncture (CLP) model of sepsis-induced renal injury; type: in vivo, mice; conditions: 30 mg/kg i.p. 30 min prior to and 6 hr post CLP; 18 hr post CLP
Source text: Control (sham) mice underwent surgery but not CLP. Each treatment group contained 4-5 mice. Renal ONOO^− generation (rhodamine fluorescence) and renal peritubular capillary perfusion were quantified using intravital video microscopy (IVVM) on anesthetized mice in each of the treatment groups.

[7] = molecular target: T4, human recombinant UGT1A1; conditions: 250 μM
Experimental: as §2, §3

[8] = molecular target: T3, human recombinant UGT1A10; conditions: 250 μM
Experimental: as §2, §3

[9] = molecular target: T5, CB1 receptors (mouse brain-mCB1 membranes) (Mus musculus, UniProt P47746); test: CB1 receptor binding, mouse brain membranes, 3H-CP 55,940 displacement
T5 construct: from tissue; host or cells: mouse brain membranes
Experimental: as §1

[10] = product 4′-glucuronide (4′G), USI = substrate inhibition

T2 sequence (P34972 whole entry): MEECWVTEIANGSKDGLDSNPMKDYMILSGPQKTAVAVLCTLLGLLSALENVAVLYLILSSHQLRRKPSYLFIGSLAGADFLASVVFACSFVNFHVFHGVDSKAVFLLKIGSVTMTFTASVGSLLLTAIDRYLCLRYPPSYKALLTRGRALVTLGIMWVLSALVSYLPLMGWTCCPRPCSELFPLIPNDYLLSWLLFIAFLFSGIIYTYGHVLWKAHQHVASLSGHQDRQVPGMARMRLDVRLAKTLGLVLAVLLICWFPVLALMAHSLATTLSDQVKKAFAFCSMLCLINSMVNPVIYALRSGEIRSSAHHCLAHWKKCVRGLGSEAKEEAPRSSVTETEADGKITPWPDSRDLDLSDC
T1 sequence (P47746 whole entry): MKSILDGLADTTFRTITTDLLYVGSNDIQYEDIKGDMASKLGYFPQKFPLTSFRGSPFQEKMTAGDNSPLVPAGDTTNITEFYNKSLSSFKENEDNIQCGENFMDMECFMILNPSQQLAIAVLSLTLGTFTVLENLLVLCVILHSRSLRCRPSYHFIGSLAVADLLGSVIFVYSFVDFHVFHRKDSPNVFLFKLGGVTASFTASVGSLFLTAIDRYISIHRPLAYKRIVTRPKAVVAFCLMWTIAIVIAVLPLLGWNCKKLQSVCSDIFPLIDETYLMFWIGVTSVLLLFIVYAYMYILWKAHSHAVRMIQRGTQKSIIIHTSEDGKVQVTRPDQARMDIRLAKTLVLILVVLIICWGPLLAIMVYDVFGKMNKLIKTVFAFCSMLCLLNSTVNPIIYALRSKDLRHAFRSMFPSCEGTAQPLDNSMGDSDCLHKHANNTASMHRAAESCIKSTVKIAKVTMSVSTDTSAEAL
T5 sequence (P47746 whole entry): as above

Row | Compound | effect on basal G-protein activity, in words [2] | Ki [3] [µM] | Kinetics (model) [4, 10] | glucuronide formation, in words (FIG. 1) [4] | Kinetics (model) ([5]; product 3-glucuronide (3G)) | Kinetics (model) ([5]; product 4′-glucuronide (4′G)) | glucuronide formation, in words (FIG. 1) [5] | further results
1 | CCCCCCC(C)(C)c1ccc([C@@H]2C[C@H](O)CC[C@H]2CCCO)c(O)c1 [CP-55,940, reference compound] |  |  |  |  |  |  |  | effect on G-protein activity, in words ([1]; 1 μM, 30 min at 30° C.): stimulated; maximal response produced by CP-55,940 ([1]; CP-55,940 alone): 0.34+/−0.03 pmole/mg protein
2 | CC1=CC[C@@H]2[C@@H](C1)c1c(O)cc(CC#CCCCNS(C)(=O)=O)cc1OC2(C)C [O-2050, reference compound] |  |  |  |  |  |  |  | effect of co-incubation on CP-55,940 stimulation and AM251 inhibition of G-protein activity ([1]; data not shown): blocked
3 | CC(C)/C=C/c1c(O)cc(/C=C/c2ccc(O)cc2)cc1O [tA3, trans-arachidin-3] | little effect | 11.3 ± 0.6 | USI | significant inhibition of 3-O-glucuronidation | M-M | M-M | significant inhibition of 3-O-glucuronidation | Kinetics (model) ([4]; product 4′-glucuronide (4′G), USI = substrate inhibition, listed as 1A3): substrate inhibition kinetics
4 | Oc1cc(O)cc(/C=C/c2ccc(O)c(O)c2)c1 [tPice, trans-piceatannol] | markedly reduced |  | Hill |  | M-M | M-M |  | Kinetics (model) ([4]; product 3-glucuronide (3G), — = No activity): M-M
5 | Oc1ccc(/C=C/c2cc(O)cc(O)c2)cc1 [tRes, trans-resveratrol] | little effect | 65.5 ± 12 |  |  |  |  |  | RNS generation in the kidney (rhodamine fluorescence, IVVM) [6]: blocked RNS generation in the kidney; renal peritubular capillary perfusion (IVVM) [6]: preserved renal capillary perfusion; glucuronide formation, in words (FIG. 1) [7]: glucuronidated to 3-O— and 4′-O-Glucs; glucuronide formation, in words (FIG. 1) [8]: glucuronidated to 3-O— and 4′-O-Glucs
6 | trans-arachidin-1 [tA1] | markedly reduced | 12.6 ± 1.7 | substrate inhibition kinetics and USI | formation of the 3-O-Gluc |  |  | completely blocked formation of any Gluc | enhancement of binding affinity for CB1 (isoprenyl plus additional hydroxyl group) [9]: 2 fold; increase (shift-to-the-right) in the ED50 of CP-55,940 ([1]; 10 μM tA-1): 7 fold; maximal response produced by CP-55,940 in presence of test compound ([1]; with tA-1 (10 μM)): 0.22+/−0.04 pmole/mg protein
